{"source": "patent US7655768B2", "about": "“Galactose derivative, drug carrier and medicinal composition” (Nippon Shinyaku Co., Ltd., priority 2004, dated 2010)", "system": "HuH-7 cells (human hepatoma cell line)", "experiment": "Expression efficiency of luciferase plasmid DNA delivered by carrier compositions in HuH-7 cells", "type": "cell-based", "conditions": "24 hours after addition of composition, carriers of Examples 9 to 13 with rising content of the Example 2 derivative, compared with carrier of Comparative Example 1, FIG. 1", "experimental": "By adding 50 μL of 10% maltose solution to 1 μg of the plasmid DNA encording luciferase gene, 50 μL of the plasmid solution containing the plasmid at 20 μg/mL was prepared. In addition, by adding 44 μL of 10% maltose solution to 6 μL of the dispersion liquid of the carrier according to Example 9 to 13 or Comparative Example 1, 50 μL of the diluted solution of the carrier at 600 μg/mL was prepared.\n50 μL of the above nucleic acid solution was added to 50 μL of the above diluted solution of the carrier, and then mixed gently. Then, the sample was left at room temperature for 15 minutes to prepare 100 μL of the composition solution containing the above plasmid at 10 μg/mL.\nHuH-7 cells (human hepatoma cell line) were seeded on a 96-well plate at 1×10^4 cells/well, and were incubated for 18 hours at 37° C. under 5% CO2. Then, 10 μL of the composition containing the carrier according to Example 9 to 13 or Comparative Example 1 prepared above (1) was added per well, and incubation was further continued. After 24 hours from addition of the composition, luciferase activity was measured. Luciferase activity was measured by detecting the bioluminescence with Top Count (manufactured by Packard), using Steady Glo Luciferase Assay System (manufactured by Promega). Meanwhile, a comparative control was a cell given the composition containing the carrier according to Comparative Example 1.", "data": [{"smiles": "CCCCCCCC/C=C\\CCCCCCCC(=O)OC[C@H](COP(=O)(O)OCCOCCOCCOCCOCCNC[C@H](O)[C@@H](O)[C@H](O[C@@H]1O[C@H](CO)[C@H](O)[C@H](O)[C@H]1O)[C@H](O)CO)OC(=O)CCCCCCC/C=C\\CCCCCCCC", "note": "[Example 2, L-α-dioleoylphosphatidyl{14-N-(1-deoxylactito-1-yl)amino-3,6,9,12-tetraoxa}tetradecanol]", "values": [{"measurement": "expression efficiency of luciferase gene (luciferase activity)", "value": "increased as compared with that in the comparative control as a function of concentration of the derivative of the present invention"}]}]}
